# In PubChem BioAssay (NCI):
#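 Protocol summary: plate cells (96-well), add compound at 5 concentrations, incubate 48 h, interpolate endpoints linearly. At the TGI there is no net growth.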
# How the values were obtained:
# Assay in all cases: NCI tumour cell line growth inhibition, 48 h
# 786-0 renal = tested on: 786-0 renal
# A498 renal = tested on: A498 renal
# A549 NSCLC = tested on: A549 NSCLC
# ACHN renal = tested on: ACHN renal
# CAKI-1 renal = tested on: CAKI-1 renal
# CCRF-CEM leukemia = tested on: CCRF-CEM leukemia
# COLO 205 colon = tested on: COLO 205 colon
# DMS 114 small cell lung = tested on: DMS 114 small cell lung
# DMS 273 small cell lung = tested on: DMS 273 small cell lung
# EKVX NSCLC = tested on: EKVX NSCLC
# HCC-2998 colon = tested on: HCC-2998 colon
# HCT-116 colon = tested on: HCT-116 colon
# HCT-15 colon = tested on: HCT-15 colon
# HL-60(TB) leukemia = tested on: HL-60(TB) leukemia
# HOP-62 NSCLC = tested on: HOP-62 NSCLC
# HOP-92 NSCLC = tested on: HOP-92 NSCLC
# HT29 colon = tested on: HT29 colon
# IGROV1 ovarian = tested on: IGROV1 ovarian
# K-562 leukemia = tested on: K-562 leukemia
# KM12 colon = tested on: KM12 colon
# KM20L2 colon = tested on: KM20L2 colon
# LOX IMVI melanoma = tested on: LOX IMVI melanoma
# LXFL 529 NSCLC = tested on: LXFL 529 NSCLC
# M14 melanoma = tested on: M14 melanoma
# M19-MEL melanoma = tested on: M19-MEL melanoma
# MALME-3M melanoma = tested on: MALME-3M melanoma
# MOLT-4 leukemia = tested on: MOLT-4 leukemia
# NCI-H226 lung = tested on: NCI-H226 lung
# NCI-H23 lung = tested on: NCI-H23 lung
# NCI-H460 lung = tested on: NCI-H460 lung
# NCI-H522 lung = tested on: NCI-H522 lung
# OVCAR-3 ovarian = tested on: OVCAR-3 ovarian
# OVCAR-4 ovarian = tested on: OVCAR-4 ovarian
# OVCAR-5 ovarian = tested on: OVCAR-5 ovarian
# OVCAR-8 ovarian = tested on: OVCAR-8 ovarian
# RPMI-8226 leukemia = tested on: RPMI-8226 leukemia
# SF-268 CNS = tested on: SF-268 CNS
# SF-295 CNS = tested on: SF-295 CNS
# SF-539 CNS = tested on: SF-539 CNS
# SK-MEL-2 melanoma = tested on: SK-MEL-2 melanoma
# SK-MEL-28 melanoma = tested on: SK-MEL-28 melanoma
# SK-MEL-5 melanoma = tested on: SK-MEL-5 melanoma
# SK-OV-3 ovarian = tested on: SK-OV-3 ovarian
# SN12C renal = tested on: SN12C renal
# SNB-19 CNS = tested on: SNB-19 CNS
# SNB-78 CNS = tested on: SNB-78 CNS
# SR leukemia = tested on: SR leukemia
# SW-620 colon = tested on: SW-620 colon
# TK-10 renal = tested on: TK-10 renal
# U251 CNS = tested on: U251 CNS
# UACC-257 melanoma = tested on: UACC-257 melanoma
# UACC-62 melanoma = tested on: UACC-62 melanoma
# UO-31 renal = tested on: UO-31 renal
# XF 498 CNS = tested on: XF 498 CNS
# DLD-1 colon = tested on: DLD-1 colon
# HOP-18 NSCLC = tested on: HOP-18 NSCLC
# MCF7 breast = tested on: MCF7 breast
# NCI/ADR-RES ovarian = tested on: NCI/ADR-RES ovarian
# P388 leukemia = tested on: P388 leukemia
# P388/ADR leukemia = tested on: P388/ADR leukemia
# RXF 393 renal = tested on: RXF 393 renal
# SN12K1 renal = tested on: SN12K1 renal
# SNB-75 CNS = tested on: SNB-75 CNS
# RXF-631 renal = tested on: RXF-631 renal
smiles,measurement,setting,value
COc1cccc(C2CC23C(=O)NC(=O)NC3=O)c1 (stereo not given),TGI,786-0 renal,> 100 µM
same,TGI,A498 renal,> 100 µM
same,TGI,A549 NSCLC,> 100 µM
same,TGI,ACHN renal,> 100 µM
same,TGI,CAKI-1 renal,> 100 µM
same,TGI,CCRF-CEM leukemia,> 100 µM
same,TGI,COLO 205 colon,> 100 µM
same,TGI,DMS 114 small cell lung,> 100 µM
same,TGI,DMS 273 small cell lung,> 100 µM
same,TGI,EKVX NSCLC,> 100 µM
same,TGI,HCC-2998 colon,> 100 µM
same,TGI,HCT-116 colon,> 100 µM
same,TGI,HCT-15 colon,> 100 µM
same,TGI,HL-60(TB) leukemia,> 100 µM
same,TGI,HOP-62 NSCLC,> 100 µM
same,TGI,HOP-92 NSCLC,> 100 µM
same,TGI,HT29 colon,> 100 µM
same,TGI,IGROV1 ovarian,> 100 µM
same,TGI,K-562 leukemia,> 100 µM
same,TGI,KM12 colon,> 100 µM
same,TGI,KM20L2 colon,> 100 µM
same,TGI,LOX IMVI melanoma,> 100 µM
same,TGI,LXFL 529 NSCLC,> 100 µM
same,TGI,M14 melanoma,> 100 µM
same,TGI,M19-MEL melanoma,> 100 µM
same,TGI,MALME-3M melanoma,> 100 µM
same,TGI,MOLT-4 leukemia,> 100 µM
same,TGI,NCI-H226 lung,> 100 µM
same,TGI,NCI-H23 lung,> 100 µM
same,TGI,NCI-H460 lung,> 100 µM
same,TGI,NCI-H522 lung,> 100 µM
same,TGI,OVCAR-3 ovarian,> 100 µM
same,TGI,OVCAR-4 ovarian,> 100 µM
same,TGI,OVCAR-5 ovarian,> 100 µM
same,TGI,OVCAR-8 ovarian,> 100 µM
same,TGI,RPMI-8226 leukemia,> 100 µM
same,TGI,SF-268 CNS,> 100 µM
same,TGI,SF-295 CNS,> 100 µM
same,TGI,SF-539 CNS,> 100 µM
same,TGI,SK-MEL-2 melanoma,> 100 µM
same,TGI,SK-MEL-28 melanoma,> 100 µM
same,TGI,SK-MEL-5 melanoma,> 100 µM
same,TGI,SK-OV-3 ovarian,> 100 µM
same,TGI,SN12C renal,> 100 µM
same,TGI,SNB-19 CNS,> 100 µM
same,TGI,SNB-78 CNS,> 100 µM
same,TGI,SR leukemia,> 100 µM
same,TGI,SW-620 colon,> 100 µM
same,TGI,TK-10 renal,> 100 µM
same,TGI,U251 CNS,> 100 µM
same,TGI,UACC-257 melanoma,> 100 µM
same,TGI,UACC-62 melanoma,> 100 µM
same,TGI,UO-31 renal,> 100 µM
same,TGI,XF 498 CNS,> 100 µM
CN(C)C(=O)/C=C/c1c[nH]c(=O)[nH]c1=O,TGI,A498 renal,> 500 µM
same,TGI,A549 NSCLC,> 500 µM
same,TGI,CAKI-1 renal,> 500 µM
same,TGI,CCRF-CEM leukemia,> 500 µM
same,TGI,COLO 205 colon,> 500 µM
same,TGI,DLD-1 colon,> 500 µM
same,TGI,DMS 114 small cell lung,> 500 µM
same,TGI,DMS 273 small cell lung,> 500 µM
same,TGI,EKVX NSCLC,> 281 µM
same,TGI,HCC-2998 colon,> 500 µM
same,TGI,HCT-116 colon,> 500 µM
same,TGI,HCT-15 colon,> 500 µM
same,TGI,HL-60(TB) leukemia,> 316 µM
same,TGI,HOP-18 NSCLC,> 500 µM
same,TGI,HOP-62 NSCLC,> 500 µM
same,TGI,HOP-92 NSCLC,> 500 µM
same,TGI,HT29 colon,> 500 µM
same,TGI,IGROV1 ovarian,> 500 µM
same,TGI,K-562 leukemia,> 500 µM
same,TGI,KM12 colon,> 500 µM
same,TGI,KM20L2 colon,> 500 µM
same,TGI,LOX IMVI melanoma,> 500 µM
same,TGI,MALME-3M melanoma,> 500 µM
same,TGI,MCF7 breast,> 500 µM
same,TGI,MOLT-4 leukemia,> 500 µM
same,TGI,NCI-H226 lung,> 500 µM
same,TGI,NCI-H23 lung,> 500 µM
same,TGI,NCI-H460 lung,> 500 µM
same,TGI,NCI-H522 lung,> 500 µM
same,TGI,NCI/ADR-RES ovarian,> 500 µM
same,TGI,OVCAR-3 ovarian,> 500 µM
same,TGI,OVCAR-4 ovarian,> 500 µM
same,TGI,OVCAR-5 ovarian,> 500 µM
same,TGI,OVCAR-8 ovarian,> 500 µM
same,TGI,P388 leukemia,> 281 µM
same,TGI,P388/ADR leukemia,> 281 µM
same,TGI,RPMI-8226 leukemia,> 316 µM
same,TGI,RXF 393 renal,> 500 µM
same,TGI,SF-268 CNS,> 500 µM
same,TGI,SF-295 CNS,> 500 µM
same,TGI,SF-539 CNS,> 500 µM
same,TGI,SK-MEL-2 melanoma,> 500 µM
same,TGI,SK-MEL-28 melanoma,> 500 µM
same,TGI,SK-MEL-5 melanoma,> 500 µM
same,TGI,SK-OV-3 ovarian,> 280 µM
same,TGI,SN12C renal,> 500 µM
same,TGI,SN12K1 renal,> 500 µM
same,TGI,SNB-19 CNS,> 500 µM
same,TGI,SNB-75 CNS,> 500 µM
same,TGI,SW-620 colon,> 500 µM
same,TGI,U251 CNS,> 500 µM
same,TGI,UACC-257 melanoma,> 500 µM
same,TGI,UACC-62 melanoma,> 500 µM
same,TGI,UO-31 renal,> 500 µM
Cc1ccc(NC(=O)CCc2nnc(N)o2)cc1,TGI,786-0 renal,> 100 µM
same,TGI,A498 renal,> 100 µM
same,TGI,A549 NSCLC,> 100 µM
same,TGI,ACHN renal,> 100 µM
same,TGI,CAKI-1 renal,> 100 µM
same,TGI,CCRF-CEM leukemia,> 100 µM
same,TGI,COLO 205 colon,> 100 µM
same,TGI,DLD-1 colon,> 100 µM
same,TGI,DMS 114 small cell lung,> 100 µM
same,TGI,DMS 273 small cell lung,> 100 µM
same,TGI,EKVX NSCLC,> 100 µM
same,TGI,HCC-2998 colon,> 100 µM
same,TGI,HCT-116 colon,> 100 µM
same,TGI,HCT-15 colon,> 100 µM
same,TGI,HL-60(TB) leukemia,> 91.7 µM
same,TGI,HOP-62 NSCLC,> 100 µM
same,TGI,HOP-92 NSCLC,> 100 µM
same,TGI,HT29 colon,> 100 µM
same,TGI,IGROV1 ovarian,> 100 µM
same,TGI,K-562 leukemia,> 100 µM
same,TGI,KM12 colon,> 100 µM
same,TGI,KM20L2 colon,> 100 µM
same,TGI,LOX IMVI melanoma,> 100 µM
same,TGI,LXFL 529 NSCLC,> 100 µM
same,TGI,M14 melanoma,> 100 µM
same,TGI,M19-MEL melanoma,> 100 µM
same,TGI,MALME-3M melanoma,> 100 µM
same,TGI,MOLT-4 leukemia,> 100 µM
same,TGI,NCI-H226 lung,> 100 µM
same,TGI,NCI-H23 lung,> 100 µM
same,TGI,NCI-H460 lung,> 100 µM
same,TGI,NCI-H522 lung,> 100 µM
same,TGI,OVCAR-3 ovarian,> 100 µM
same,TGI,OVCAR-4 ovarian,> 100 µM
same,TGI,OVCAR-5 ovarian,> 100 µM
same,TGI,OVCAR-8 ovarian,> 100 µM
same,TGI,RPMI-8226 leukemia,> 100 µM
same,TGI,RXF 393 renal,> 100 µM
same,TGI,RXF-631 renal,> 31.6 µM
same,TGI,SF-268 CNS,> 100 µM
same,TGI,SF-295 CNS,> 100 µM
same,TGI,SF-539 CNS,> 100 µM
same,TGI,SK-MEL-2 melanoma,> 100 µM
same,TGI,SK-MEL-28 melanoma,> 100 µM
same,TGI,SK-MEL-5 melanoma,> 100 µM
same,TGI,SK-OV-3 ovarian,> 100 µM
same,TGI,SN12C renal,> 100 µM
same,TGI,SNB-19 CNS,> 100 µM
same,TGI,SNB-75 CNS,> 100 µM
same,TGI,SNB-78 CNS,> 100 µM
same,TGI,SW-620 colon,> 100 µM
same,TGI,TK-10 renal,> 100 µM
same,TGI,U251 CNS,> 100 µM
same,TGI,UACC-257 melanoma,> 100 µM
same,TGI,UACC-62 melanoma,> 100 µM
same,TGI,UO-31 renal,> 100 µM
same,TGI,XF 498 CNS,> 100 µM
